From paper PMC7377239, “Cardiovascular Effects of Polychlorinated Biphenyls and Their Major Metabolites” (Environmental Health Perspectives, 2020)
Where a name gives a salt, the structure may show the parent alone. Read-outs that look alike come from different tables or passages of the source.

Test system: iCell cardiomyocytes (human iPSC-derived cardiomyocytes)
Experiment: High-content imaging of cytotoxicity and mitochondrial integrity in iPSC-CMs
Assay type: cell-based
Conditions: Homo sapiens, Cardiomyocyte; for viability at 0.01 µM / activity at 0.01 µM / viability at 0.1 µM / activity at 0.1 µM / viability at 1 µM / activity at 1 µM / viability at 10 µM / activity at 10 µM / viability at 100 µM / activity at 100 µM: 0.00 µM = 100.00; for viability at 0.1 µM / activity at 0.1 µM: 0.10 µM
Outline: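 Cardiomyocytes grown on gelatinized 384-well plates received fresh medium on the experiment day and were then exposed to chemicals at 0.01–100μM. Nuclei and mitochondria were labeled with Hoechst 33342 and MitoTracker™ Orange, then fixed, and imaged on an ImageXpress® Micro Confocal system. Four-parameter logistic concentration–response fits in R, with a one-standard-deviation vehicle cutoff, gave point-of-departure values.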

[1] = 1.5 h, 90min, read-out: cm.cam.90min
[2] = 1.5 h, 90min, read-out: cm.mii.90min
[3] = 1.5 h, 90min, read-out: cm.mito.90min
[4] = 1.5 h, 90min, read-out: cm.tc.90min
[5] = 24 h, 24hrs, read-out: cm.cam.24hrs
[6] = 24 h, 24hrs, read-out: cm.mii.24hrs
[7] = 24 h, 24hrs, read-out: cm.mito.24hrs
[8] = 24 h, 24hrs, read-out: cm.tc.24hrs
[9] = 1.5 h, cardiomyocytes (cm), cam, 90 min, read-out: POD cm.cam.90min
[10] = 1.5 h, cardiomyocytes (cm), mii, 90 min, read-out: POD cm.mii.90min
[11] = 1.5 h, cardiomyocytes (cm), mito, 90 min, read-out: POD cm.mito.90min
[12] = 1.5 h, cardiomyocytes (cm), tc, 90 min, read-out: POD cm.tc.90min
[13] = 24 h, cardiomyocytes (cm), cam, 24 hrs, read-out: POD cm.cam.24hrs
[14] = 24 h, cardiomyocytes (cm), mii, 24 hrs, read-out: POD cm.mii.24hrs
[15] = 24 h, cardiomyocytes (cm), mito, 24 hrs, read-out: POD cm.mito.24hrs
[16] = 24 h, cardiomyocytes (cm), tc, 24 hrs, read-out: POD cm.tc.24hrs

## COc1cc(Cl)c(-c2cc(Cl)ccc2Cl)cc1Cl [4-OMe PCB52]
[1]
  viability at 0.01 µM: 94.3%
  viability at 0.1 µM: 98.7%
  viability at 1 µM: 101%
  viability at 10 µM: 100%
  viability at 100 µM: 0.37%
[2]
  activity at 0.01 µM: 101%
  activity at 0.1 µM: 90.9%
  activity at 1 µM: 95.2%
  activity at 10 µM: 108%
  activity at 100 µM: 69.6%
[3]
  activity at 0.01 µM: 94.1%
  activity at 0.1 µM: 98.7%
  activity at 1 µM: 101%
  activity at 10 µM: 99.8%
  activity at 100 µM: 0.37%
[4]
  viability at 0.01 µM: 94.2%
  viability at 0.1 µM: 98.8%
  viability at 1 µM: 101%
  viability at 10 µM: 100%
  viability at 100 µM: 0.46%
1.5 h, 90min, read-out: cm.cam.90min POD
  minimal effective concentration: 27.6 µM
1.5 h, 90min, read-out: cm.mii.90min POD
  minimal effective concentration: 57.2 µM
1.5 h, 90min, read-out: cm.mito.90min POD
  minimal effective concentration: 18.6 µM
1.5 h, 90min, read-out: cm.tc.90min POD
  minimal effective concentration: 33 µM
[5]
  viability at 0.01 µM: 97.9%
  viability at 0.1 µM: 106%
  viability at 1 µM: 102%
  viability at 10 µM: 102%
  viability at 100 µM: 4.05%
[6]
  activity at 0.01 µM: 95.9%
  activity at 0.1 µM: 91.2%
  activity at 1 µM: 99.8%
  activity at 10 µM: 78.7%
  activity at 100 µM: 55.8%
[7]
  activity at 0.01 µM: 98.7%
  activity at 0.1 µM: 107%
  activity at 1 µM: 101%
  activity at 10 µM: 103%
  activity at 100 µM: 2.86%
[8]
  viability at 0.01 µM: 98.3%
  viability at 0.1 µM: 106%
  viability at 1 µM: 102%
  viability at 10 µM: 102%
  viability at 100 µM: 4.37%
24 h, read-out: cm.cam.24hrs POD
  minimal effective concentration: 33 µM
24 h, read-out: cm.mii.24hrs POD
  minimal effective concentration: 5.58 µM
24 h, read-out: cm.mito.24hrs POD
  minimal effective concentration: 35.8 µM
24 h, read-out: cm.tc.24hrs POD
  minimal effective concentration: 35 µM

## COc1ccc(-c2cccc(Cl)c2)cc1Cl [4-OMe-PCB 11, 4-methoxy-3,3′-dichlorobiphenyl]
[9]
  minimal effective concentration: 33.8 µM
[10]
  minimal effective concentration: 62.2 µM
[11]
  minimal effective concentration: 29.1 µM
[12]
  minimal effective concentration: 28.6 µM
[13]
  minimal effective concentration: 37.2 µM
[14]
  minimal effective concentration: 10.8 µM
[15]
  minimal effective concentration: 31.1 µM
[16]
  minimal effective concentration: 33.4 µM

## COc1cc(Cl)c(-c2cc(Cl)ccc2Cl)cc1Cl [4-OMe-PCB 52, 4-methoxy-2,2′,5,5′-tetrachlorobiphenyl]
[9]
  minimal effective concentration: 27.6 µM
[10]
  minimal effective concentration: 57.2 µM
[11]
  minimal effective concentration: 18.6 µM
[12]
  minimal effective concentration: 33 µM
[13]
  minimal effective concentration: 33 µM
[14]
  minimal effective concentration: 5.58 µM
[15]
  minimal effective concentration: 35.8 µM
[16]
  minimal effective concentration: 35 µM

## O=S(=O)(O)Oc1ccc(-c2cccc(Cl)c2)cc1Cl [4-PCB 11 sulfate]
[9]
  minimal effective concentration: 100 µM
[10]
  minimal effective concentration: 100 µM
[11]
  minimal effective concentration: 100 µM
[12]
  minimal effective concentration: 100 µM
[13]
  minimal effective concentration: 5.91 µM
[14]
  minimal effective concentration: 49.2 µM
[15]
  minimal effective concentration: 7.07 µM
[16]
  minimal effective concentration: 6.38 µM

## O=S(=O)(O)Oc1cc(Cl)c(-c2cc(Cl)ccc2Cl)cc1Cl [4-PCB 52 sulfate]
[9]
  minimal effective concentration: 10.8 µM
[10]
  minimal effective concentration: 41.2 µM
[11]
  minimal effective concentration: 10.6 µM
[12]
  minimal effective concentration: 10.8 µM
[13]
  minimal effective concentration: 8.2 µM
[14]
  minimal effective concentration: 44.6 µM
[15]
  minimal effective concentration: 8.28 µM
[16]
  minimal effective concentration: 8.44 µM
